# Entries after “also recorded” stand apart in the source; their conditions may differ. Where two headings read alike, the source gives them in different places.
# Key:
# [1] = test system: glycerol kinase (GK) produced by Streptomyces canus A 2408; test: Effect of metal ions and p-chloromercuribenzoate (PCMB); type: biochemical
# Description: Effect of metal ions and p-chloromercuribenzoate (PCMB)
# [2] = test system: glycerol kinase (GK) produced by Streptomyces canus A 2408; test: Specific activity for nucleotide; type: biochemical; settings: for Relative activity (%): 10 mM ATP replaced by the nucleotide, formed glycero-3-phosphate measured
# Protocol: (ii) specific activity for nucleotide:
# In assay method (i) hereinabove, 10 mM ATP is replaced by CTP, ITP, GTP and UTP and measures the formed glycero-3-phosphate.
# [3] = test system: glycerol kinase (GK) produced by Streptomyces canus A 2408; test: Km value of GK for its substrates; type: biochemical
# Protocol: The above mixture (1 ml) is preincubated at 37° C. for 5 minutes and GK solution (50 μl) [diluted with GL-buffer (10 mM phosphate buffer containing 10 mM glycerol, pH 7.5)] is added thereto and incubated at 37° C. for 10 minutes.
# One unit of GK is defined as liberating […] of glycero-3-phosphate per minute.
# Enzyme activity is calculated by the following equation: [formula]
# [4] = test system: glycerol kinase (GK) produced by Streptomyces canus A 2408; test: Substrate specificity for glycerol, dihydroxyacetone phosphate and D-glyceraldehyde (ADP assay); type: biochemical; settings: for Relative activity: substrate 0.1 M, 0.05 ml, 37° C. for 10 minutes, ADP assayed at 550 nm
# Protocol: (i) specificity for glycerol, dihydroxyacetone phosphate and D-glyceraldehyde: […]
# The reaction mixture (0.95 ml) is preincubated at 37° C. for 3 minutes, and the enzyme solution (dissolved in 10 mM phosphate buffer, pH 7.5, 0.05 ml) is added thereto. Then the mixture is incubated at 37° C. for 10 minutes. The reaction is stopped by boiling for 3 minutes. After cooling to 37° C., the amount of ADP is assayed. ADP is assayed by adding an ADP-assay solution (2.0 ml) comprising the following mixture: […]
# The reaction mixture is incubated at 37° C. for 15 minutes. Color formation is measured at 550 nm to calculate the substrate specificity.
# [5] = test system: Escherichia coli GK (E.Co-GK); settings: cited from earlier work
# [6] = test system: pigeon heart GK (Pig.-GK); settings: cited from earlier work
molecule,measurement,setting,value
"O=C(O)c1cc[c]([Hg][Cl])cc1 [PCMB, p-chloromercuribenzoate]",Inhibition of GK activity by PCMB (in words),[1]; 7.5×10^-6 M of PCMB,completely inhibits
same,Relative Activity (%) with 1 mM Mg++,[1]; PCMB 5.0 × 10^-6 M,13%
same,Relative Activity (%) with 1 mM Mg++,[1]; PCMB 7.5 × 10^-6 M,0%
O=c1ccn([C@@H]2O[C@H](COP(=O)(O)OP(=O)(O)OP(=O)(O)O)[C@@H](O)[C@H]2O)c(=O)[nH]1 [UTP],Relative activity (%),[2],18%
OCC(O)CO [glycerol],Km,[3],48 µM
same,substrate specificity (in words),[4]; glycerol versus dihydroxyacetone phosphate,higher specificity
same,Relative activity,[4],100%
O=C(CO)CO [dihydroxyacetone],Km,[3],660 µM
same,Relative activity,[4],74%
dihydroxyacetone phosphate,activity for dihydroxyacetone phosphate as compared with glycerol,[5],nearly twice
O=c1[nH]cnc2c1ncn2[C@@H]1O[C@H](COP(=O)(O)OP(=O)(O)OP(=O)(O)O)[C@@H](O)[C@H]1O [ITP],Relative activity (%),[2],47%
[Cl-].[Cl-].[Mg+2] [MgCl2],Effect of metal ion on GK activity (in words),[1],activated
same,Relative Activity (%) with 1 mM Mg++,[1]; reagent 1.0 mM,100%
same,Relative Activity (%) without Mg++,[1]; reagent 1.0 mM,100%
[Ca+2].[Cl-].[Cl-] [CaCl2],Effect of metal ion on GK activity (in words),[1],inhibited
same,Relative Activity (%) with 1 mM Mg++,[1]; reagent 1.0 mM,54%
same,Relative Activity (%) without Mg++,[1]; reagent 1.0 mM,0%
Nc1ccn([C@@H]2O[C@H](COP(=O)(O)OP(=O)(O)OP(=O)(O)O)[C@@H](O)[C@H]2O)c(=O)n1 [CTP],nucleotide specificity (in words),[2],especially high specificity
same,Relative activity (%),[2],92%
O=C[C@H](O)CO [D-glyceraldehyde],Km,[3],350 µM
same,Relative activity,[4],20%
Nc1nc2c(ncn2[C@@H]2O[C@H](COP(=O)(O)OP(=O)(O)OP(=O)(O)O)[C@@H](O)[C@H]2O)c(=O)[nH]1 [GTP],Relative activity (%),[2],19%
[Cl][Mn][Cl] [MnCl2],Effect of metal ion on GK activity (in words),[1]; listed as Mn++,inhibited; also recorded: strongly inhibits
same,Relative Activity (%) with 1 mM Mg++,[1]; reagent 1.0 mM,14%
same,Relative Activity (%) without Mg++,[1]; reagent 1.0 mM,6%
same,use as divalent metal ion (in words),[5],can be used
same,use as divalent metal ion (in words),[6],can be used
Nc1ncnc2c1ncn2[C@@H]1O[C@H](COP(=O)(O)OP(=O)(O)OP(=O)(O)O)[C@@H](O)[C@H]1O [ATP],Km,[3],200 µM
same,nucleotide specificity (in words),[2],especially high specificity
same,Relative activity (%),[2],100%
same,nucleotide specificity (in words),[5],acts only for ATP

# From patent publication US4347323A, “Glycerol kinase from Streptomyces canus” (Toyo Jozo Kabushiki Kaisha, priority 1979, dated 1982)
